Reference: patent publication US20230304024A1, “Modulation of Gene Expression Via Transcription Factor-Chemically Induced Proximity (TF-CIP)” (The Board of Trustees of the Leland Stanford Junior …, priority 2020, published 2023)
“Also recorded” adds a separate entry of the source.

Tests used:
Karpas 422 = experiment: Cell death / viability, PrestoBlue HS (resazurin) assay, Karpas 422; format: cell-based; conditions: FIG. 6 Panel B, ER-positive cells with amplified/rearranged BCL6, compared with BI3812
Description: (§1) Note that the higher concentrations lead to a reduction in activation of the reporter consistent with the “hook effect” characteristic of bifunctional molecules as they saturate both binding sites.(PMID: 8752278; PMID:21406691), in this case the BCL6 protein and the estrogen receptor. […] Panel C. […] Viability was measured using the PrestoBlue HS (resazurin) assay for viable cells (1:10 ratio in media and 1 h incubation).
(§2) These reporter systems and direct measures of cancer cell killing were used to assess the TF-CIP molecules made by rational design that are illustrated in FIG. 4. As shown in Panel A, addition of ER-TF-CIP6 activates GFP expression by the BCL reporter with an EC50 of about 1 to 10 micromolar. […] Note that the higher concentrations lead to a reduction in activation of the reporter consistent with the “hook effect” characteristic of bifunctional molecules as they saturate both binding sites. (PMID: 8752278; PMID:21406691), in this case the BCL6 protein and the estrogen receptor. […] Viability was measured using the PrestoBlue HS (resazurin) assay for viable cells (1:10 ratio in media and 1 h incubation).

BCL6 reporter = BCL6 reporter GFP activation; format: cell-based, human; conditions: FIG. 6 Panel A
Description: FIGS. 5A to 5C illustrate the development of reporters for activation of cell death or pro-apoptotic pathways by the disinhibited BCL6 protein or the pro-apoptotic protein FOXO3A. FIG. 5A: The BCL6 reporter consists of an array of BCL6 binding sites taken from different pro-apoptotic genes including TP53, PUMA, BIM and others. These genes have the ability to kill cells when simply overexpressed (PMID:11463391). Ten base pairs on either side of the actual human BCL6 binding site are included to take advantage of the fact that transcriptional specificity is due to the concerted binding of proteins in an enhanceosome (PMID:9510247, 18206362).
as §1
FIGS. 5A to 5C provide examples of how one measures the effect of a TF-CIP to allow chemical optimization of linker and ligands. […] Thus, the reporter system is multiplexed and useful for defining and quantitating apoptotic responses in many different cell types. […]

HEK293 cells = experiment: Cell death / viability, PrestoBlue HS (resazurin) assay, HEK293; format: cell-based; conditions: FIG. 6 Panel C
Description: as §1, §2

[1] = test system: ER-negative breast cancer cell lines; experiment: Cell death / viability, PrestoBlue HS (resazurin) assay, ER-negative breast cancer cell lines; format: cell-based; conditions: FIG. 6 Panels D and E; two ER-negative or low-ER breast cancer cell lines
Description: as §1, §2

CNC(=O)COc1cc2cc(Nc3nc(N4CCC(C(=O)NCCOCCOCCNC(=O)CO/N=C5\CCC6C7CCc8cc(O)ccc8C7CC[C@]56C)CC4)ncc3Cl)cc(OC)c2n(C)c1=O (stereo partly drawn) [ER-TF-CIP6]
induction of cell death (Karpas 422): more effectively than B13812 | induction of cell death (Karpas 422; listed as ER-TFCIP6): more effectively than BI3812 | potency in BCL6 reporter relative to BI3812 (BCL6 reporter; comparison with parent compound BI3812): substantially lower concentration than that of the parent compound | EC50 (BCL6 reporter; Homo sapiens, read-out: EC50 of activation of GFP expression by the BCL reporter): 1 to 10 µM | induction of cell death (HEK293 cells): induces cell death | cell killing [1]: does not kill; also recorded: are not killed
